These results are taken from patent publication US9128097B2, “Method and kit for assessing viable cells” (ChemoMetec A/S, priority 2008, dated 2015).

The subject of the test is bone marrow derived dendritic cells (BM-DCs). The test can be described thus: Staining of bone marrow derived dendritic cells with labelling agent and PI. The following applies: dendritic cells 97% viable; 10 μL NAM (100 μg pr. mL DMSO) to 90 μL cells. The test is classed as cell-based, murine. The text has this: Materials and Methods. Dendritic cells were developed from murine bone marrow derived cells as described by “Lutz, M. B., N. Kukutsch, A. L. Ogilvie, S. Rossner, F. Koch, N. Romani, and G. Schuler. 1999. An advanced culture method for generating large quantities of highly pure dendritic cells from mouse bone marrow. J Immunol Methods 223:77-92”. Bone marrow cells were harvested aseptically in the laminar flow hood as described in example 11. Washed and resuspended bone marrow cells were resuspended in RPMI 1640 (Invitrogen, #61870) supplemented with 10% heat-inactivated fetal bovine serum (Invitrogen, #10108-165), 100 U/mL penicillin and 100 μg/mL streptomycin (Invitrogen, #15140-122). […] 90 μL dendritic cells (cell density 1.2×10^6, 97% viable determined using the NC-100 NucleoCounter system following the manufacturer's (ChemoMetec A/S) protocol) were added 10 μL NAM (N-(9-acridinyl)maleimide, Sigma, #01665, CAS no. 49759-20-8) dissolved in DMSO (100 μg NAM pr. mL DMSO) and mixed by pipetting. […] The cells were investigated using an Olympus IX50 fluorescence microscope, and images were captured using a Lumenera CCD camera and in-house developed software. PI and NAM fluorescence were detected using, respectively, U-MWG2 (green long pass: 510-550 nm) and U-MNUA2 (UV band pass, 330-385 nm) filter cubes (Olympus). […]

`O=C1C=CC(=O)N1c1c2ccccc2nc2ccccc12` [NAM, N-(9-acridinyl)maleimide]: the “staining of cells (UV filter) versus PI positive cells” value was “nearly all the dendritic cells were stained by NAM”.
